# Source: patent US20220401514A1, “ANTIMICROBIAL, BACTERIOPHAGE-DERIVED POLYPEPTIDES AND THEIR USE AGAINST GRAM-NEGATIVE AND ACID-FAST BACTERIA” (CONTRAFECT CORPORATION, priority 2019, published 2022)
# Read-outs that look alike come from different tables or passages of the source.
# Key:
# M. fortuitum = experiment: 45 hr MIC against M. fortuitum (NTM); format: cell-based, Mycobacterium fortuitum; settings: M. fortuitum subsp. Fortuitum da Costa Cruz. ATCC 6841
# [1] = system: P. aeruginosa strain CFS-1292; experiment: MIC in presence of mouse, rat, rabbit and human serum ([…] each); format: cell-based, Pseudomonas aeruginosa; settings: P. aeruginosa CFS-1292
# Description: The activity of several Chp peptides against P. aeruginosa strain CFS-1292 in animal serum was evaluated. […] Rat, mouse, and rabbit serum were all obtained from pooled gender samples.
# [2] = system: P. aeruginosa strain CFS-1292; experiment: MIC in presence of divalent cations (calcium chloride, magnesium sulfate); format: cell-based, Pseudomonas aeruginosa
# Description: Next, Chp peptides were evaluated in the presence of different divalent cations. […]; (2) in the presence of 2 mM calcium chloride alone; (3) in the presence of 1 mM magnesium sulfate alone; and (4) in the presence of both 2 mM calcium chloride and 1 mM magnesium sulfate. […]
# Acinetobacter baumannii = experiment: microbe, parasite or virus in culture; format: cell-based
# [3] = system: P. aeruginosa strain CFS-1292; experiment: MIC in presence and absence of Survanta pulmonary surfactant; format: cell-based, Pseudomonas aeruginosa
# [4] = system: Pseudomonas aeruginosa, Escherichia coli, Enterobacter cloacae, Klebsiella pneumoniae, and Acinetobacter baumannii; experiment: MIC against a range of Gram-negative organisms (statements covering several species); format: cell-based; settings: Tables 40-44 isolates
# Description: (§1) Determination of Minimal Inhibitory Concentrations (MIC).
# (§2) Additional MIC testing was performed for several peptides against the ESKAPE pathogens Escherichia coli, Enterobacter cloacae, Klebsiella pneumoniae, and Acinetobacter baumannii, in CAA supplemented with human serum (Table D).
# Pseudomonas aeruginosa = experiment: microbe, parasite or virus in culture; format: cell-based; settings: for MIC: CAA without human serum
# [5] = system: carbapenem-resistant bacterial strains; experiment: organism not typed; format: cell-based
# Excerpt: as §1
# [6] = system: M. kansasii Hauduroy ATCC 12478; experiment: 45 hr MIC against M. kansasii (NTM), Mueller Hinton broth; format: cell-based, Mycobacterium kansasii
# M. smegmatis = experiment: 45 hr MIC against M. smegmatis (NTM), Mueller Hinton broth; format: cell-based, Mycobacterium smegmatis
# Klebsiella pneumoniae [7] = format: cell-based
# Description: as §1, §2
# M. scrofulaceum = experiment: 45 hr MIC against M. scrofulaceum (NTM); format: cell-based, Mycobacterium scrofulaceum; settings: M. scrofulaceum Prissick and Masson ATCC 19981
# [8] = system: P. aeruginosa strain CFS-1292; experiment: MIC at pH 6, pH 7 and pH 8; format: cell-based, Pseudomonas aeruginosa
# Description: The Chp peptides were further evaluated at varying pH levels. The MIC values were determined at pH 6, pH 7, and pH 8 for 18 different Chp peptides against P. aeruginosa strain CFS-1292. […]
# Klebsiella pneumoniae [9] = experiment: microbe, parasite or virus in culture; format: cell-based; settings: CAA without human serum
# Enterobacter cloacae = experiment: microbe, parasite or virus in culture; format: cell-based
# Method in brief: (§3)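 Human serum was added to CAA broth for these MIC determinations with peptides.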
# Escherichia coli = experiment: microbe, parasite or virus in culture; format: cell-based
# Method in brief: as §3
# [10] = system: P. aeruginosa strain CFS-1292; experiment: MIC in presence and absence of NaCl (140 mM); format: cell-based, Pseudomonas aeruginosa
# Description: Certain Chp peptides were evaluated over a range of physiological NaCl levels and pH values, and were further evaluated for activity in the presence of various divalent cations.
# [11] = system: Mycobacterium tuberculosis strains
# Description: MIC values for various Chp peptides were determined using the CLSI method for broth microdilution in 96-well microtiter format.
# Next, MIC values for various Chp peptides were determined using the CLSI method above for broth microdilution in 96-well microtiter format for two different Mycobacterium tuberculosis strains. The MIC was determined as explained above for the NTM strains.
# M. intracellulare = experiment: 45 hr MIC against M. intracellulare (NTM); format: cell-based, Mycobacterium intracellulare; settings: M. intracellulare (Cuttino and McCabe) Runyon ATCC 13950
# [12] = system: carbapenem-resistant P. aeruginosa clinical isolate CFS-1292; experiment: MIC by modified CLSI broth microdilution against P. aeruginosa CFS-1292 (CAA, CAA + human serum); format: cell-based, Pseudomonas aeruginosa; settings: 100% CAA; 1st run or single value
# [13] = A. baumannii isolates (n per peptide in table)
# [14] = P. aeruginosa isolates (n per peptide in table)
# [15] = K. pneumoniae isolates (n per peptide in table)
# [16] = E. cloacae isolates (n per peptide in table)
# [17] = E. coli isolates (n per peptide in table)
sequence,measurement,setting,value
MARRRYRLPRRRSRRLFSRTALRMHPRNRLRRIMRGGIRF [Chp6],45 hr MIC,M. fortuitum,4 µg/mL
same,MIC BALB/C Mouse Serum,[1]; BALB/C mouse serum […],32 µg/mL
same,MIC CAA,[1]; CAA,1 µg/mL
same,MIC New Zealand White Rabbit Serum,[1]; New Zealand White rabbit serum […],4 µg/mL
same,MIC Sprague Dawley Rat Serum,[1]; Sprague Dawley rat serum […],4 µg/mL
same,MIC Human Serum,[1]; human serum […],1 µg/mL
same,MIC,[2]; CAA media + 1 mM MgSO4,1 µg/mL
same,MIC,[2]; CAA media + 2 mM CaCl2,0.5 µg/mL
same,MIC,[2]; CAA media + + 1 mM MgSO4,1 µg/mL
same,MIC,[2]; CAA media alone,1 µg/mL
same,MIC50,Acinetobacter baumannii; [13],0.25 µg/mL
same,MIC100,Acinetobacter baumannii; [13],0.5 µg/mL
same,MIC Range,Acinetobacter baumannii; [13],0.125 to 1 µg/mL
same,MIC,"Acinetobacter baumannii; Acinetobacter baumannii (clinical isolate HSS), RSC 30, CAA without human serum",2 µg/mL
same,MIC,"Acinetobacter baumannii; Acinetobacter baumannii (clinical isolate HSS), RSC 32, CAA without human serum",2 µg/mL
same,MIC,"Acinetobacter baumannii; Acinetobacter baumannii ATCC BAA 747, CAA supplemented with human serum",1 µg/mL
same,MIC,[3]; CAA media + 0.19 mg/mL Survanta,0.5 µg/mL
same,MIC,[3]; CAA media + […] Survanta,0.5 µg/mL
same,MIC,[3]; CAA media alone,0.5 µg/mL
same,"activity (good = MIC100 of ≤4) against all of P. aeruginosa, K. pneumoniae, A. baumannii, E. cloacae, and E. coli",[4],good activity
same,MIC,"Pseudomonas aeruginosa; P. aeruginosa 453 (Human clinical isolate, HSS), RSC 1292",2 µg/mL
same,MIC,"Pseudomonas aeruginosa; P. aeruginosa (ATCC 14213, human hip wound), RSC 1111",4 µg/mL
same,MIC,"Pseudomonas aeruginosa; P. aeruginosa (ATCC 15152, abscess in middle ear), RSC 1110",2 µg/mL
same,MIC,"Pseudomonas aeruginosa; P. aeruginosa (ATCC 15692, infected wound), RSC 489",2 µg/mL
same,MIC,"Pseudomonas aeruginosa; P. aeruginosa (ATCC 15692, infected wound), RSC 1115",4 µg/mL
same,MIC,"Pseudomonas aeruginosa; P. aeruginosa (ATCC 17646, human liver abscess), RSC 1109",4 µg/mL
same,MIC,"Pseudomonas aeruginosa; P. aeruginosa (ATCC 19142, tracheobronchial secretion), RSC 1108",2 µg/mL
same,MIC,"Pseudomonas aeruginosa; P. aeruginosa (ATCC 25102, bacteriophage host), RSC 1114",2 µg/mL
same,MIC,"Pseudomonas aeruginosa; P. aeruginosa (ATCC 27853, MIC control strain), RSC 815",1 µg/mL
same,MIC,"Pseudomonas aeruginosa; P. aeruginosa (ATCC BAA-27, lab strain), RSC 1113",2 µg/mL
same,MIC,"Pseudomonas aeruginosa; P. aeruginosa (PAO1, alternate source, HER1018), RSC 490",1 µg/mL
same,MIC50,Pseudomonas aeruginosa; [14],1 µg/mL
same,MIC100,Pseudomonas aeruginosa; [14],1 µg/mL
same,MIC Range,Pseudomonas aeruginosa; [14],0.5 to 1 µg/mL
same,MIC,[5]; carbapenem-resistant isolate PA19,0.5 µg/mL
same,MIC,[5]; carbapenem-resistant isolate PA20,1 µg/mL
same,MIC,[5]; carbapenem-resistant isolate PA21,1 µg/mL
same,MIC,[5]; carbapenem-resistant isolate PA22,1 µg/mL
same,MIC,[5]; carbapenem-resistant isolate PA23,1 µg/mL
same,MIC,[5]; carbapenem-resistant isolate PA24,1 µg/mL
same,MIC,[5]; carbapenem-resistant isolate WLC-452,0.25 µg/mL
same,45 hr MIC,[6],1 µg/mL
same,45 hr MIC,"M. smegmatis; M. smegmatis MC^2 155, Run #1",4 µg/mL
same,45 hr MIC,"M. smegmatis; M. smegmatis MC^2 155, Run #2",4 µg/mL
same,MIC50,Klebsiella pneumoniae [7]; [15],0.5 µg/mL
same,MIC100,Klebsiella pneumoniae [7]; [15],1 µg/mL
same,MIC Range,Klebsiella pneumoniae [7]; [15],0.125 to 1 µg/mL
same,MIC,"Klebsiella pneumoniae [7]; Klebsiella pneumoniae HM-44, CAA supplemented with human serum",0.125 µg/mL
same,45 hr MIC,M. scrofulaceum,2 µg/mL
same,MIC,[8]; CAA media (pH 7),1 µg/mL
same,MIC,[8]; pH 6,2 µg/mL
same,MIC,[8]; pH 7,0.25 µg/mL
same,MIC,[8]; pH 8,1 µg/mL
same,MIC,"Klebsiella pneumoniae [9]; Klebsiella pneumoniae (ATCC 10031, MIC control strain), RSC 814",4 µg/mL
same,MIC,"Klebsiella pneumoniae [9]; Klebsiella pneumoniae (g2-3 HM35K), RSC 1138",4 µg/mL
same,MIC,"Klebsiella pneumoniae [9]; Klebsiella sp. (HM-44; colon, Crohn's disease), RSC 1139",1 µg/mL
same,MIC,"Klebsiella pneumoniae [9]; Klebsiella spp. (HM-223; gut of Crohn's disease patient), RSC 1131",4 µg/mL
same,MIC50,Enterobacter cloacae; [16],0.5 µg/mL
same,MIC100,Enterobacter cloacae; [16],1 µg/mL
same,MIC Range,Enterobacter cloacae; [16],0.25 to 2 µg/mL
same,MIC,"Enterobacter cloacae; Enterobacter cloacae (ATCC 13047, MIC control strain), RSC 1240, CAA without human serum",4 µg/mL
same,MIC,"Enterobacter cloacae; Enterobacter cloacae ATCC 13047, CAA supplemented with human serum",2 µg/mL
same,MIC,"Escherichia coli; E. coli (ATCC 25922, MIC control strain), RSC 813, CAA without human serum",2 µg/mL
same,MIC,"Escherichia coli; E. coli (HM346, colon, Crohn's disease), RSC 1212, CAA without human serum",2 µg/mL
same,MIC50,Escherichia coli; [17],0.5 µg/mL
same,MIC100,Escherichia coli; [17],1 µg/mL
same,MIC Range,Escherichia coli; [17],0.25 to 2 µg/mL
same,MIC,"Escherichia coli; Escherichia coli ATCC 25922, CAA supplemented with human serum",1 µg/mL
same,Fold change in MIC,[10]; CAA + 140 mM NaCl versus CAA without added NaCl,1
same,"MIC, CAA + 140 mM NaCl","[10]; CAA + 140 mM NaCl, P. aeruginosa CFS-1292",0.5 µg/mL
same,"MIC, CAA (no added NaCl)","[10]; CAA, no added NaCl, P. aeruginosa CFS-1292",0.5 µg/mL
same,MIC,[11]; Mycobacterium tuberculosis (Zopf) Lehmann and Neumann ATCC 25177,32 µg/mL
same,MIC,[11]; Mycobacterium tuberculosis (Zopf) Lehmann and Neumann ATCC 35817,4 µg/mL
same,45 hr MIC,M. intracellulare,0.5 µg/mL
same,MIC (μg/mL) against CFS-1292 in 100% CAA (1st run/2nd run),[12],0.5 µg/mL
